{
  "source": "patent EP4201411A1",
  "about": "“NOVEL USE OF VITAMIN B12” (DSM IP Assets B.V., priority 2021, dated 2023)",
  "assay_type_in_all_cases": "cell-based, human",
  "key": {"ASC protein": {"system": "ASC protein", "test": "ASC immunostaining of sections of UV-B irradiated skin explants (ex vivo)", "details": "for ASC complex, % / ASC complex, mean_int (int/area) / ASC complex, Mean intensity / condition: skin explant sections, UVB 200mJ/cm2; for ASC complex, %: NTNS = 100.00, NTUV = 138.17; for ASC complex, mean_int (int/area) / ASC complex, Mean intensity / condition: n =38; for ASC complex, Mean intensity / condition: NTUV = 660.03, NTNS = 477.70", "description": "(§1) To further define the benefits of vitamin B12 in the skin, we included analysis of the compound in response to a stressor that induces inflammasome-medicated inflammation. Stress model options include UV exposure, confirming the effects on more complex skin tissues (ex vivo model). Firstly, the cytotoxicity of the active ingredient was evaluated. Then, the capacity of the active ingredient was measured to regulate inflammasome activation. […] Using immunohistochemistry, the effect of the active ingredient on the level of ASC protein (inflammasome marker) was studied. Finally, the expression level of miRNA hsa-miR-22-3p was quantified from RT-qPCR.\n(§2) Ex vivo culture model and treatment: Fresh skin explants were obtained from abdominal surgery of a person. The culture medium dedicated to skin explants was used and renewed every day during each treatment. The skin biopsies were cultured in different conditions and each condition was performed in triplicates and processed separately. The active ingredient treatment was applied before and after the UV-B stress, but not during the UV stress. An UV-B irradiation of […] for 2 minutes was applied identically onto each irradiated skin explant. Prior to the irradiation, the culture medium was removed and replace by PBS +/+ for the duration of the stress.\n(§3) Samples: • 1.Control Explant (No treatment, no irradiation) (NT_NS) • 2. Explant + UVB (NT_UV) • 3. Explant + UVB + vitamin B12 (0.01%) • 4. Explant + UVB + vitamin B12 (0.001%) Total no. of samples = 4 x 3 = 12 samples\nTo evaluate the onset of apoptotic signaling, the fluorescence intensity of ASC was measured. After UV exposure, the explants were replaced in a fresh culture medium. At the end of the treatments the explants were frozen and then cut into thin sections. Following this, immunohistochemistry was performed by adding primary monoclonal Antibody ASC/TMS1/PYCARD (clone B-3) (SantaCruz #sc-514414) and secondary antibody anti-mouse coupled to Cy5 (Jackson Laboratory). After Hoechst 33342 staining, the fluorescence intensity was measured using a Zeiss fluorescence microscope (Axio imager Z1).\nTable 4: Quantification of ASC complex immunolabelled in skin explant sections with or without UV-B stress and after vitamin B12 treatment at 0,01% or 0,001% and irradiated or not with UVB at 200mJ/cm2. The statistical analysis was performed using two-tailed unpaired T-test vs NT_UV (+ p-value <0.05, ++ p-value<0.01, +++ p-value<0.001)."}, "Interleukin-1β": {"system": "Interleukin-1β", "test": "IL-1β competitive ELISA on culture supernatants of UV-B irradiated skin explants (ex vivo)", "details": "vitamin B12 0,01%", "description": "as §1, §2, §3\nThe secretion of Interleukin-1β in response to activation of the stress-induced inflammatory signaling pathway was evaluated using a competitive ELISA assay. 24 hours after exposure to UV-B irradiation, culture supernatants of explants were recovered. The samples were then treated according to the manufacturer's instructions using the IL-1β (RAB0273, Sigma Aldrich). The Interleukin production by explants was measured at 450 nm using ENSIGHT.\nIL-1β secretion results: UV-B increased the production of IL-1β compared to the untreated control. […]"}, "miR-22-3p": {"system": "miR-22-3p", "test": "miR-22-3p quantification by RT-qPCR in UV-B irradiated skin explants (ex vivo)", "details": "for miR-22-3p QR mean: skin explants, UV-B 200 mJ/cm2, normalized using U6 RNA, NT_UV = 1.067; for expression level of miR-22-3p (in words): skin explants after UV-B stress, vs NT_UV", "description": "as §1, §2, §3\nThe miRNAs were extracted and purified using miRCURY RNA Isolation Kit. The quality control and miRNA quantification were performed using Agilent RNA Small kit and Analysis Agilent 2100 bioanalyzer. For miR qPCR, the RNA was reverse transcribed with a miRCURY LNA RT kit (339340, Qiagen). The reverse transcription reactions were diluted, and a fraction of diluted cDNA was used for each quantitative PCR, which was performed with a miRCURY LNA SYBR Green PCR kit (339346, Qiagen) using the CFX-connect (Biorad). The results were normalized to U6 expression. The reference and expression level of miRNA were calculated using 2ΔΔCt method.\nTable 2: Effect of vitamin B12 on miR expression in skin explants after UV-B stress. The explants were treated with vitamin B12 at two concentrations (0,01% and 0,001%) and irradiated with UV-B at 200 mJ/cm2. The miR expression was normalized using U6 RNA. Two-tailed unpaired t-test was used for statistical analysis (using values from 3 replicates) vs NT_UV (*p-value <0.05)."}, "skin explants": {"system": "skin explants", "test": "LDH cytotoxicity assay on UV-B irradiated skin explants (ex vivo)", "details": "for Cytotoxicity [OD 450 nm] Mean/conditions: LDH production, skin explants irradiated with 200 mJ/cm2 UVB", "description": "as §1, §2, §3\nCytotoxicity method: Lactate dehydrogenase assay kit (LDH) was purchased from Roche and used according to manufacturer's protocol.\nTable 1: Effect of vitamin B12 on LDH production by skin explants at 2 concentrations (0,01% and 0,001%) and of the positive control Triton at 0.1% after irradiation with 200 mJ/cm2 UVB. The statistical analysis was performed using two-tailed unpaired T-test and was not significant (p<0.05) for the vitamin B12 treatment vs irradiated control (NT_UV)."}},
  "data": [
    {"substance": "cyanocobalamin [vitamin B12]", "values": [
      {"measurement": "ASC complex, %", "setting": "ASC protein; vitamin B12 0,01%", "value": 103.22, "unit": "%"},
      {"measurement": "ASC complex, mean_int (int/area)", "setting": "ASC protein; vitamin B12 0,01%", "value": 491.31, "unit": "int/area"},
      {"measurement": "ASC complex, Mean intensity / condition", "setting": "ASC protein; vitamin B12 0,01%", "value": 493.07},
      {"measurement": "ASC protein (in words)", "setting": "ASC protein; vitamin B12 0.001 % and 0.01 % topically on UV-irradiated skin explants", "value": "significantly reduced the ASC protein in a dose-dependent manner"},
      {"measurement": "ASC complex activation (in words)", "setting": "ASC protein; vitamin B12 0.001%, after UV-B treatment", "value": "significantly reduces the ASC complex activation"},
      {"measurement": "ASC complex activation (in words)", "setting": "ASC protein; vitamin B12 0.01%, compared to the UV-B stressed sample", "value": "significantly reduce the ASC complex activation to the level of the none irradiated extract"},
      {"measurement": "ASC complex, %", "setting": "ASC protein; vitamin B12 0,001%", "value": 118.48, "unit": "%"},
      {"measurement": "ASC complex, mean_int (int/area)", "setting": "ASC protein; vitamin B12 0,001%", "value": 524.44, "unit": "int/area"},
      {"measurement": "ASC complex, Mean intensity / condition", "setting": "ASC protein; vitamin B12 0,001%", "value": 565.99},
      {"measurement": "IL-1β secretion (in words)", "setting": "Interleukin-1β; skin explants after UV-B stress", "value": "seems to decrease"},
      {"measurement": "IL-1β secretion, Relative Intensity", "setting": "Interleukin-1β; skin explants after UV-B, NT_NS = 100, NT_UV = 157", "value": 137},
      {"measurement": "IL-1β secretion, Mean Intensity", "setting": "Interleukin-1β; skin explants, 24 hours after UV-B, NT_UV = 4.914, NT_NS = 3.122", "value": 4.2644},
      {"measurement": "miR-22-3p QR mean", "setting": "miR-22-3p; vitamin B12 0,01%", "value": 1.721},
      {"measurement": "expression level of miR-22-3p (in words)", "setting": "miR-22-3p; vitamin B12 0.01%", "value": "significantly increased"},
      {"measurement": "expression level of miR-22-3p (in words)", "setting": "miR-22-3p; vitamin B12 0,001%", "value": "tends to increase miR-22-3p expression, but this activation is not statistically significant"},
      {"measurement": "miR-22-3p QR mean", "setting": "miR-22-3p; vitamin B12 0,001%", "value": 1.334},
      {"measurement": "Cytotoxicity [OD 450 nm] Mean/conditions", "setting": "skin explants; vitamin B12 0,01%", "value": 0.131, "unit": "OD 450 nm"},
      {"measurement": "Cytotoxicity [OD 450 nm] Mean/conditions", "setting": "skin explants; vitamin B12 0,001%", "value": 0.163, "unit": "OD 450 nm"},
      {"measurement": "cytotoxicity (in words)", "setting": "skin explants; vitamin B12 0,01% and 0,001%, skin explants after UVB, compared to biopsies treated with Triton 0.1%", "value": "did not exert cytotoxicity"}
    ]}
  ]
}
